Measured values from ChEMBL document CHEMBL1201862, “PubChem BioAssay data set” (2004).
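Exposure lasted 48 hours, with cells grown in 96-well plates and compounds tested at five concentrations. At the GI50, growth is halved.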 Activity calls are given as the source filed them. Cut-off read from the data, not from the text of the source: active = GI50 up to about 1.1 µM and inactive = higher.

Legend:
Experiment in all cases: NCI anticancer screen, dose series, 48 h
A549 = test system: A549
ACHN = test system: ACHN
CAKI-1 = test system: CAKI-1
EKVX = test system: EKVX
HCC 2998 = test system: HCC 2998
HCT-116 = test system: HCT-116
MCF7 = test system: MCF7
Malme-3M = test system: Malme-3M
NCI-H460 = test system: NCI-H460
NCI/ADR-RES = test system: NCI/ADR-RES
OVCAR-3 = test system: OVCAR-3
OVCAR-4 = test system: OVCAR-4
RXF 393 = test system: RXF 393
SF-539 = test system: SF-539
SN12C = test system: SN12C
SR = test system: SR
TK-10 = test system: TK-10
UACC-257 = test system: UACC-257
KM12 = test system: KM12
M14 = test system: M14

Row | SMILES | GI50 (A549) | GI50 (ACHN) | GI50 (CAKI-1) | GI50 (EKVX) | GI50 (HCC 2998) | GI50 (HCT-116) | GI50 (MCF7) | GI50 (Malme-3M) | GI50 (NCI-H460) | GI50 (NCI/ADR-RES) | GI50 (OVCAR-3) | GI50 (OVCAR-4) | GI50 (RXF 393) | GI50 (SF-539) | GI50 (SN12C) | GI50 (SR) | GI50 (TK-10) | GI50 (UACC-257) | GI50 (KM12) | GI50 (M14)
1 | Nc1n[nH]c2nc3ccccc3nc12 [QUINOXALINE1] | 61.9 µM (inactive) | 36 µM (inactive) | 31.9 µM (inactive) | 73.3 µM (inactive) | > 100 µM (inactive) | 31 µM (inactive) | 61.2 µM (inactive) | > 100 µM (inactive) | 84.7 µM (inactive) | > 100 µM (inactive) | 62.4 µM (inactive) | > 100 µM (inactive) | 27.9 µM (inactive) | 61.7 µM (inactive) | > 100 µM (inactive) | 20 µM (inactive) | 70.1 µM (inactive) | > 100 µM (inactive) | – | –
2 | O=C1OC2(OC2c2ccc(Cl)cc2)c2ccccc21 (stereo unspecified) | > 100 µM (inactive) | 94.2 µM (inactive) | > 100 µM (inactive) | > 100 µM (inactive) | > 100 µM (inactive) | > 100 µM (inactive) | – | > 100 µM (inactive) | > 100 µM (inactive) | – | > 100 µM (inactive) | 42.6 µM (inactive) | 62.7 µM (inactive) | > 100 µM (inactive) | > 100 µM (inactive) | > 100 µM (inactive) | > 100 µM (inactive) | – | 71.1 µM (inactive) | > 100 µM (inactive)
3 | O=C(O)c1cc2sc(C(=O)O)cc2s1 | > 100 µM (inactive) | – | > 100 µM (inactive) | – | – | > 100 µM (inactive) | – | > 100 µM (inactive) | > 100 µM (inactive) | – | > 100 µM (inactive) | > 100 µM (inactive) | > 100 µM (inactive) | > 100 µM (inactive) | > 100 µM (inactive) | > 100 µM (inactive) | > 100 µM (inactive) | > 100 µM (inactive) | > 100 µM (inactive) | > 100 µM (inactive)
4 | Cc1cnc(/C=N\NC(N)=S)c2cccc(N)c12 | 2.58 µM (inactive) | 0.387 µM (active) | 0.516 µM (active) | 1.1 µM (active) | 0.578 µM (active) | 0.724 µM (active) | 0.526 µM (active) | 1.62 µM (inactive) | 0.538 µM (active) | 1.84 µM (inactive) | 0.426 µM (active) | 1.95 µM (inactive) | 0.728 µM (active) | 0.676 µM (active) | 0.434 µM (active) | 0.314 µM (active) | 5.78 µM (inactive) | 2.54 µM (inactive) | 1.9 µM (inactive) | –
5 | O=[N+]([O-])C(=C/c1ccccc1)/C(=C\c1ccccc1)[N+](=O)[O-] | 28.6 µM (inactive) | 16.9 µM (inactive) | 15.7 µM (inactive) | 17.3 µM (inactive) | 21.6 µM (inactive) | 17.8 µM (inactive) | 14.9 µM (inactive) | – | 14.8 µM (inactive) | 18.7 µM (inactive) | 19.5 µM (inactive) | 21.3 µM (inactive) | 10.2 µM (inactive) | 1.6 µM (inactive) | 23.4 µM (inactive) | – | 16.1 µM (inactive) | 17 µM (inactive) | 15.4 µM (inactive) | 19.1 µM (inactive)
6 | C=C(C(=O)C(=O)Oc1ccc(Cl)cc1)C(=O)c1ccc(C)cc1 | 78 µM (inactive) | 91.4 µM (inactive) | 94.4 µM (inactive) | > 100 µM (inactive) | 26.5 µM (inactive) | 16.7 µM (inactive) | – | 78.3 µM (inactive) | 83 µM (inactive) | – | 46.8 µM (inactive) | > 100 µM (inactive) | 26.4 µM (inactive) | 18.4 µM (inactive) | 49.9 µM (inactive) | 13.1 µM (inactive) | > 100 µM (inactive) | 71.8 µM (inactive) | 21.5 µM (inactive) | 28.3 µM (inactive)
7 | Cc1ccc(S(N)(C(=O)Nc2cccc3ccccc23)[N+](=O)[O-])cc1 (stereo unspecified) | – | – | > 100 µM (inactive) | – | > 100 µM (inactive) | 66.7 µM (inactive) | 59.2 µM (inactive) | > 100 µM (inactive) | > 100 µM (inactive) | > 100 µM (inactive) | 61.8 µM (inactive) | > 100 µM (inactive) | > 100 µM (inactive) | – | > 100 µM (inactive) | 58.9 µM (inactive) | 72.4 µM (inactive) | > 100 µM (inactive) | > 100 µM (inactive) | > 100 µM (inactive)
8 | c1ccc2cc3n[se]nc3cc2c1 | 52.7 µM (inactive) | > 100 µM (inactive) | > 100 µM (inactive) | > 100 µM (inactive) | 38.9 µM (inactive) | – | – | > 100 µM (inactive) | – | – | – | > 100 µM (inactive) | > 100 µM (inactive) | 37.6 µM (inactive) | 91.8 µM (inactive) | – | > 100 µM (inactive) | > 100 µM (inactive) | > 100 µM (inactive) | > 100 µM (inactive)
9 | COc1nc2ccc(CNc3ccc(C(=O)NC(CCC(=O)O)C(=O)O)cc3)cc2nc1OC (stereo unspecified) | > 100 µM (inactive) | > 100 µM (inactive) | – | > 100 µM (inactive) | > 100 µM (inactive) | – | > 100 µM (inactive) | 90.8 µM (inactive) | > 100 µM (inactive) | > 100 µM (inactive) | > 100 µM (inactive) | > 100 µM (inactive) | > 100 µM (inactive) | – | > 100 µM (inactive) | > 100 µM (inactive) | > 100 µM (inactive) | > 100 µM (inactive) | > 100 µM (inactive) | > 100 µM (inactive)
10 | Cc1c2cnccc2c(C)c2c1c1ccccc1n2CCCCCCNCc1ccccc1 | 1.91 µM (inactive) | – | 1.89 µM (inactive) | 2.11 µM (inactive) | 1.88 µM (inactive) | 0.649 µM (active) | 1.45 µM (inactive) | 2.44 µM (inactive) | 0.538 µM (active) | 0.74 µM (active) | 1.87 µM (inactive) | 0.787 µM (active) | 2.04 µM (inactive) | 1.87 µM (inactive) | 1.59 µM (inactive) | – | – | 1.96 µM (inactive) | 1.21 µM (inactive) | –
11 | O=C1C(Cl)N(c2ccccc2)C1c1c[nH]c2ccccc12 (stereo unspecified) | > 100 µM (inactive) | – | – | > 100 µM (inactive) | – | > 100 µM (inactive) | – | > 100 µM (inactive) | > 100 µM (inactive) | – | > 100 µM (inactive) | > 100 µM (inactive) | > 100 µM (inactive) | > 100 µM (inactive) | > 100 µM (inactive) | > 100 µM (inactive) | > 100 µM (inactive) | > 100 µM (inactive) | > 100 µM (inactive) | > 100 µM (inactive)
12 | CC(C)OP(=O)(OC(C)C)/C(I)=N/Nc1ccc([N+](=O)[O-])cc1 | > 100 µM (inactive) | > 100 µM (inactive) | > 100 µM (inactive) | > 100 µM (inactive) | > 100 µM (inactive) | > 100 µM (inactive) | – | > 100 µM (inactive) | > 100 µM (inactive) | – | > 100 µM (inactive) | > 100 µM (inactive) | – | > 100 µM (inactive) | > 100 µM (inactive) | > 100 µM (inactive) | > 100 µM (inactive) | > 100 µM (inactive) | > 100 µM (inactive) | > 100 µM (inactive)
13 | COC(OC)C1OC(CO)C(n2cc(F)c(=O)[nH]c2=O)C1O (stereo unspecified) | > 100 µM (inactive) | > 100 µM (inactive) | > 100 µM (inactive) | > 100 µM (inactive) | > 100 µM (inactive) | > 100 µM (inactive) | > 100 µM (inactive) | – | > 100 µM (inactive) | > 100 µM (inactive) | > 100 µM (inactive) | > 100 µM (inactive) | > 100 µM (inactive) | > 100 µM (inactive) | > 100 µM (inactive) | – | > 100 µM (inactive) | > 100 µM (inactive) | > 100 µM (inactive) | > 100 µM (inactive)
14 | O=c1oc2ccccc2n1P(=O)(n1c(=O)oc2ccccc21)n1c(=O)oc2ccccc21 | > 100 µM (inactive) | > 100 µM (inactive) | > 100 µM (inactive) | 97.7 µM (inactive) | > 100 µM (inactive) | > 100 µM (inactive) | – | > 100 µM (inactive) | > 100 µM (inactive) | – | > 100 µM (inactive) | > 100 µM (inactive) | > 100 µM (inactive) | > 100 µM (inactive) | > 100 µM (inactive) | > 100 µM (inactive) | > 100 µM (inactive) | > 100 µM (inactive) | > 100 µM (inactive) | > 100 µM (inactive)
15 | c1ccc(/N=C2\SC3=NCCN3\C2=N/c2ccccc2)cc1 | – | – | 17.9 µM (inactive) | – | 18.7 µM (inactive) | 13.6 µM (inactive) | 10.7 µM (inactive) | > 10 µM (inactive) | 20.7 µM (inactive) | 28 µM (inactive) | 18.1 µM (inactive) | – | 15.2 µM (inactive) | – | 22.8 µM (inactive) | 21.4 µM (inactive) | – | – | 15.9 µM (inactive) | 17.5 µM (inactive)
16 | C/C(=C1/N=C(c2cc([N+](=O)[O-])ccc2Cl)N(c2ccc(Br)cc2)C1=O)c1cc2ccccc2oc1=O | 25.9 µM (inactive) | 6 µM (inactive) | 12.9 µM (inactive) | > 100 µM (inactive) | 24 µM (inactive) | 24.5 µM (inactive) | – | 34.8 µM (inactive) | 26.3 µM (inactive) | – | 49.2 µM (inactive) | 18.3 µM (inactive) | – | 30.1 µM (inactive) | 20.3 µM (inactive) | 14.9 µM (inactive) | – | 45.8 µM (inactive) | 21.8 µM (inactive) | 25.9 µM (inactive)
17 | NC1(C(=O)O)CCCC1 [CYCLOLEUCINE] | > 625 µM (inactive) | – | > 625 µM (inactive) | > 578 µM (inactive) | > 625 µM (inactive) | > 625 µM (inactive) | > 625 µM (inactive) | > 625 µM (inactive) | > 625 µM (inactive) | > 625 µM (inactive) | > 62.5 µM (inactive) | > 625 µM (inactive) | > 625 µM (inactive) | > 625 µM (inactive) | > 91 µM (inactive) | – | – | > 625 µM (inactive) | > 625 µM (inactive) | –
